Measured values reported in patent US20240158446A1, “CYCLIC COMPOUND HAVING SELECTIVE INHIBITORY ACTION ON KRAS OVER HRAS AND NRAS” (CHUGAI SEIYAKU KABUSHIKI KAISHA, priority 2021, published 2024).
Read-outs that look alike come from different tables or passages of the source. Where a SMILES comes first, the peptide text is derived from it. Bridges are numbered along the chain shown (N, C = ends). [ ]: non-standard residue; d: D form. The star is where a group is joined. hPhe(3,5-F2-4-CF3) = N[C@@H](CCc1cc(F)c(C(F)(F)F)c(F)c1)C(=O)O; hPhe(3-Cl-4-CF3) = N[C@@H](CCc1ccc(C(F)(F)F)c(Cl)c1)C(=O)O; NPrPhe(4-CF3) = CCCN[C@@H](Cc1ccc(C(F)(F)F)cc1)C(=O)O; NPrPhe(4-Me) = CCCN[C@@H](Cc1ccc(C)cc1)C(=O)O; NEtPhe(4-F) = CCN[C@@H](Cc1ccc(F)cc1)C(=O)O; NMeGly(cPent) = CN[C@H](C(=O)O)C1CCCC1; NMeD = CN[C@@H](CC(=O)O)C(=O)O; NMeL = CN[C@@H](CC(C)C)C(=O)O; αMeS = C[C@](N)(CO)C(=O)O; Morpholide = C1CN(*)CCO1; NMeA = CN[C@@H](C)C(=O)O; Ac5c = NC1(C(=O)O)CCCC1; Aze = O=C(O)[C@@H]1CCN1; NEtG = CCNCC(=O)O; Sar = CNCC(=O)O; Allyl = C=CC*

Experiments:
[1] = biological target: GDP-bound NRAS wild-type protein (Homo sapiens, UniProt P01111); assay: Binding to NRAS by surface plasmon resonance (SPR), Single Cycle Kinetics
[2] = biological target: GDP-bound KRAS wild-type protein (Homo sapiens, UniProt P01116); assay: Binding to KRAS by surface plasmon resonance (SPR), Single Cycle Kinetics; settings: GDP-bound KRAS wild-type protein, read-out: KRAS KD
[3] = biological target: GDP-bound HRAS wild-type protein (Homo sapiens, UniProt P01112); assay: Binding to HRAS by surface plasmon resonance (SPR), Single Cycle Kinetics
[4] = SPR, GDP-bound NRAS wild-type protein vs GDP-bound KRAS wild-type protein
[5] = SPR, GDP-bound HRAS wild-type protein vs GDP-bound KRAS wild-type protein
[6] = SPR Single Cycle Kinetics, 1:1 binding model

Sequence of GDP-bound NRAS wild-type protein (P01111 whole entry): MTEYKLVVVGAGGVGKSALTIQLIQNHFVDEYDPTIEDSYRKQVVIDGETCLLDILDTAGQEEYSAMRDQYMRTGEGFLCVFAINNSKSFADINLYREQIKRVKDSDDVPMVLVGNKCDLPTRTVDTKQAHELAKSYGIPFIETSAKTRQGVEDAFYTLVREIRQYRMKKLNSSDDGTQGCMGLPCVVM
Sequence of GDP-bound KRAS wild-type protein (P01116 whole entry): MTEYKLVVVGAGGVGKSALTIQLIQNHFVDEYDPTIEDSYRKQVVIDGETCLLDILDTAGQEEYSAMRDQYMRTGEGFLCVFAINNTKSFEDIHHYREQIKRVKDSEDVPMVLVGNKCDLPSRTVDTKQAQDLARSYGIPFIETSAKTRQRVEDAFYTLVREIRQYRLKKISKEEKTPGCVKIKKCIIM
Sequence of GDP-bound HRAS wild-type protein (P01112 whole entry): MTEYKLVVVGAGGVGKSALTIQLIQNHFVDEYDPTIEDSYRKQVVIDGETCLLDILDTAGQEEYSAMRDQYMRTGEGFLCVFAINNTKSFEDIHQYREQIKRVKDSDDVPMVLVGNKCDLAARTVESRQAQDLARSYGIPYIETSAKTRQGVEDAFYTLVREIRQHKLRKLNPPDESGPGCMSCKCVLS

Kd ([2]; SPR, Single Cycle Kinetics) [nM]	Kd [2, 6] [nM]	SMILES	NRAS/KRAS (ratio of KD value for NRAS to KD value for KRAS) [1, 4]	HRAS/KRAS (ratio of KD value for HRAS to KD value for KRAS) [3, 5]	NRAS/KRAS (ratio of KD value with respect to NRAS to KD value with respect to KRAS) [1, 4]	HRAS/KRAS (ratio of KD value with respect to HRAS to KD value with respect to KRAS) [3, 5]	NRAS/KRAS (ratio of KD value with respect to GDP-bound NRAS wild-type protein to KD value with respect to KRAS) ([1]; SPR KD ratio NRAS/KRAS, class symbols)	HRAS/KRAS (ratio of KD value with respect to GDP-bound HRAS wild-type protein to KD value with respect to KRAS) ([3]; SPR KD ratio HRAS/KRAS, class symbols)
0.49	–	CCO[C@@H]1C[C@H]2C(=O)NC3(CC(C)(C)C3)C(=O)N(C)[C@@H](C(CC)CC)C(=O)N(C)[C@H](C(=O)N3CCCC3)CC(=O)N(C)[C@@H](C)C(=O)N[C@@H]([C@@H](C)CC)C(=O)N(C)CC(=O)N(C)[C@H]3C/C=C\CCN(C3=O)[C@@H](Cc3ccc(C(F)(F)F)cc3)C(=O)N(C)CC(=O)N[C@@H](CCc3ccc(Cl)c(Cl)c3)C(=O)N2C1 [PP2178]	AA (a compound having 20 or more is denoted as AA)	A (a compound having 10 or more and less than 20 is denoted as A)	–	–	–	–
–	0.073	CCCN1C(=O)[C@@H]2CCN2C(=O)[C@H](C)N(C)C(=O)[C@H]([C@@H](C)CC)NC(=O)[C@H](CC(C)C)N(C)C(=O)C[C@@H](C(=O)N(C)C)N(C)C(=O)[C@H](C2CCCC2)N(C)C(=O)C2(CCCC2)NC(=O)[C@@H]2CCCN2C(=O)[C@H](CCc2ccc(C(F)(F)F)c(Cl)c2)NC(=O)CN(C)C(=O)[C@@H]1Cc1ccc(C(F)(F)F)cc1 [PP0178] ([NMeL]I[NMeA][Aze][NPrPhe(4-CF3)][Sar][hPhe(3-Cl-4-CF3)]P[Ac5c][NMeGly(cPent)][NMeD]-NMe2; lactam N-11)	C (A compound having a KD ratio of 0.1 or more and less than 3 is denoted as C)	B (a compound having 3 or more and less than 10 is denoted as B)	–	–	–	–
–	2.7	CCC[C@H]1C(=O)N[C@@H]([C@@H](C)CC)C(=O)N(C)CC(=O)N(C)[C@H]2C/C=C\CCN(C2=O)[C@@H](Cc2ccc(C(F)(F)F)cc2)C(=O)N(C)CC(=O)N[C@@H](CCc2ccc(C(F)(F)F)c(OC)c2)C(=O)N2CC[C@H]2C(=O)NC2(CC(C)(C)C2)C(=O)N(C)[C@@H](C(CC)CC)C(=O)N(C)[C@H](C(=O)N(C)C)CC(=O)N1C [PP2936]	–	–	–	–	AA (a compound having 20 or more is denoted as AA)	A (a compound having 10 or more and less than 20 is denoted as A)

More lines, now with the values behind:

SMILES	Kd ([2]; SPR, Single Cycle Kinetics) [nM]	Kd [2, 6] [nM]	NRAS/KRAS (ratio of KD value for NRAS to KD value for KRAS) [1, 4]	HRAS/KRAS (ratio of KD value for HRAS to KD value for KRAS) [3, 5]	NRAS/KRAS (ratio of KD value with respect to NRAS to KD value with respect to KRAS) [1, 4]	HRAS/KRAS (ratio of KD value with respect to HRAS to KD value with respect to KRAS) [3, 5]	NRAS/KRAS (ratio of KD value with respect to GDP-bound NRAS wild-type protein to KD value with respect to KRAS) ([1]; SPR KD ratio NRAS/KRAS, class symbols)	HRAS/KRAS (ratio of KD value with respect to GDP-bound HRAS wild-type protein to KD value with respect to KRAS) ([3]; SPR KD ratio HRAS/KRAS, class symbols)
C=CCOC[C@]1(C)NC(=O)[C@@H]2CCCN2C(=O)[C@H](CCc2cc(F)c(C(F)(F)F)c(F)c2)NC(=O)CN(C)C(=O)[C@H](Cc2ccc(C(F)(F)F)cc2)N(CCC)C(=O)[C@@H]2CCN2C(=O)CN(C)C(=O)[C@H]([C@@H](C)CC)NC(=O)[C@H](CC(C)C)N(C)C(=O)C[C@@H](C(=O)N2CCOCC2)N(C)C(=O)[C@H](C2CCCC2)N(C)C1=O [PP0799] ([NMeL]I[Sar][Aze][NPrPhe(4-CF3)][Sar][hPhe(3,5-F2-4-CF3)]P[αMeS](Allyl)[NMeGly(cPent)][NMeD]-Morpholide; lactam N-11)	–	1.5	–	–	C (A compound having a KD ratio of 0.1 or more and less than 3 is denoted as C)	B (a compound having 3 or more and less than 10 is denoted as B)	–	–
CCCN1C(=O)CN(CC)C(=O)CN(C)C(=O)[C@H]([C@@H](C)CC)NC(=O)[C@H](CC(C)C)N(C)C(=O)C[C@@H](C(=O)N2CCOCC2)N(C)C(=O)[C@H](C2CCCC2)N(C)C(=O)C2(CCCC2)NC(=O)[C@@H]2CCCN2C(=O)[C@H](CCc2ccc(C(F)(F)F)c(Cl)c2)NC(=O)CN(C)C(=O)[C@@H]1Cc1ccc(C)cc1 [PP0065] ([NMeL]I[Sar][NEtG][NPrPhe(4-Me)][Sar][hPhe(3-Cl-4-CF3)]P[Ac5c][NMeGly(cPent)][NMeD]-Morpholide; lactam N-11)	–	0.54	C (A compound having a KD ratio of 0.1 or more and less than 3 is denoted as C)	C (A compound having a KD ratio of 0.1 or more and less than 3 is denoted as C)	–	–	–	–
CC[C@H](C)[C@@H]1NC(=O)[C@H](CC(C)C)N(C)C(=O)C[C@@H](C(=O)N2CCOCC2)N(C)C(=O)[C@H](C2CCCC2)N(C)C(=O)C2(CCCC2)NC(=O)[C@@H]2CCCN2C(=O)[C@H](CCc2ccc(C(F)(F)F)c(Cl)c2)NC(=O)CN(C)C(=O)[C@H](Cc2ccc(F)cc2)N(CC)C(=O)CN(C)C(=O)CN(C)C1=O [PP0213] ([NMeL]I[Sar][Sar][NEtPhe(4-F)][Sar][hPhe(3-Cl-4-CF3)]P[Ac5c][NMeGly(cPent)][NMeD]-Morpholide; lactam N-11)	–	0.25	C (A compound having a KD ratio of 0.1 or more and less than 3 is denoted as C)	C (A compound having a KD ratio of 0.1 or more and less than 3 is denoted as C)	–	–	–	–
